# US20250064990A1, “METHODS OF SCREENING FOR VMAT2 INHIBITORS” (Neurocrine Biosciences, Inc., priority 2021, published 2025)
# Where “and” joins values, the source holds several entries; their conditions need not be identical. Equal entries are not always repeated. Where two headings read alike, the source gives them in different places.
# How the values were obtained:
# VMAT2 [1] = molecular target: T1, VMAT2 (Homo sapiens, UniProt Q05940); conditions: Freeby et al., Mol. Imaging Biol. 2016; cited from earlier work
# T1 sequence (Q05940 whole entry): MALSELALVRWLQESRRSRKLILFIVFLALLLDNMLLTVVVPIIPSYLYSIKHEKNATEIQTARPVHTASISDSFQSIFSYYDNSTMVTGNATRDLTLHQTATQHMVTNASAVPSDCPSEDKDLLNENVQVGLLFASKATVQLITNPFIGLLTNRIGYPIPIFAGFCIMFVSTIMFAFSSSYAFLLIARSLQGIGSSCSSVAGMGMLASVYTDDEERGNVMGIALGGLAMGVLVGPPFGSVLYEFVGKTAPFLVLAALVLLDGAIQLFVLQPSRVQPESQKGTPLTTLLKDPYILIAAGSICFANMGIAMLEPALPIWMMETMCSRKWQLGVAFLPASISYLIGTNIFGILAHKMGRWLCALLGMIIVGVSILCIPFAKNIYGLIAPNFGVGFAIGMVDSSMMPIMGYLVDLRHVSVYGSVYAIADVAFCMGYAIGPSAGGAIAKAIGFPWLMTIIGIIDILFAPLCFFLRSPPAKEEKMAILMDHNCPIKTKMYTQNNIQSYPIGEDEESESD
# VMAT2 [2] = test: Estimated VMAT2 target occupancy and clinical observations in cynomolgus monkey; type: in vivo; conditions: ~30 min to 1 h post-dosing, at estimated 96%-98% VMAT2 target occupancy
# Text: As described below, there were adverse events at these doses, enabling a benchmarking of % TO values that could lead to adverse events.
# synaptic dopamine = test: Valbenazine effects on the dopamine system, [^11C]-PHNO PET; type: in vivo, human; conditions: 40-160 mg oral valbenazine, healthy volunteers, interim analysis, eight participants
# Text: By way of example only, in some embodiments, “synaptic dopamine” can be measured non-invasively as follows. Subjects receive an oral dose of a VMAT2 inhibitor before administration of [^11C]-PHNO, with PET imaging occurring around the time of maximal VMAT2 inhibitor plasma concentration. The binding potential relative to the non-displaceable binding (BPND) in the putamen, caudate, and ventral striatum, is used as the primary endpoint. The cerebellum is used as the reference region to estimate the regional BPND. The measured increases in [^11C]-PHNO BPND relative to baseline (ΔBPND) correspond to decreases in synaptic dopamine following VMAT2 inhibitor administration. Other radioligands can be used. Alternatively, in some embodiments, indirect measurements of synaptic dopamine can be achieved via invasive techniques such as methods described in Huang M., et al., Pharmacology, Biochemistry and Behavior 190 (2020) 172872; and Bosche S. L., et al., Frontiers in Neuroscience, November 2021|Volume 15|Article 728092.
# Interim imaging and tolerability data in an ongoing study were collected and analyzed in cohorts of 2-4 healthy volunteers. […] Plasma concentrations of valbenazine and (+)-α-dTBZ (dihydrotetrabenazine), the active metabolite of valbenazine, were measured at the start and end of each post-valbenazine PET scan. […]
# [3] = Adverse events in healthy volunteers receiving valbenazine; type: in vivo, human; conditions: 40-160 mg valbenazine
# Experimental: Interim imaging and tolerability data in an ongoing study were collected and analyzed in cohorts of 2-4 healthy volunteers. For each scan, participants received an injection of the D2/D3 dopamine receptor agonist radioligand [^11C](+)4-propyl-3,4,4a,5,6,10b-hexahydro-2H-naphtho[1,2-b][1,4]oxazin-9-ol ([^11C]-PHNO), followed by 90 min of data acquisition using Siemens Biograph PET/CT. For post-valbenazine scans, participants received an oral dose of valbenazine 6-8 hours before the administration of [^11C]-PHNO, with PET imaging occurring around the time of maximal valbenazine plasma concentration. The binding potential relative to the non-displaceable binding (BPND) in the putamen, caudate, and ventral striatum, was used as the primary endpoint. The cerebellum was used as the reference region to estimate the regional BPND. Decreases in synaptic dopamine following valbenazine administration corresponded to an increase in [^11C]-PHNO BPND relative to baseline (ΔBPND). Plasma concentrations of valbenazine and (+)-α-dTBZ (dihydrotetrabenazine), the active metabolite of valbenazine, were measured at the start and end of each post-valbenazine PET scan. The mean plasma (+)-α-dTBZ concentration (Cave) was matched to the ΔBPND for each participant to provide an exposure-response curve.
# VMAT2 [4] = molecular target: T1, VMAT2; test: Estimated VMAT2 target occupancy in humans for valbenazine from NHP PET free EC50 and human PK; type: in vivo; design: The free EC50 derived from NHP PET was then used to estimate % TO in humans; from tissue; host or cells: human brain in vivo (modelled, not imaged)
# [5] = NBI-98782 concentration in cynomolgus monkey plasma by LC-MS/MS; type: in vivo, cynomolgus monkeys (Macaca fascicularis)
# Experimental: During each scan, whole blood PK samples were collected (in K2 EDTA tubes) at pre-dose (−5 min), and post-dose at 4 (approximately 1 min after completion of bolus), 30, 60 (just prior to [^18F]AV-133 radiopharmaceutical administration), 90, 120, 150, 180 (end of scan) minutes after test article administration. PK samples were approximately 1 mL each (8 mL total, including pre-dose sample).
# Plasma samples were processed using liquid-liquid extraction with the additional of a stable isotopic labeled internal standard ^13C-83198. Processed samples were chromatographically separated on a C18 reversed phase column and coupled to a Sciex API 4000 triple quadrupole mass spectrometer for detection.
# Quantitation was performed using a weighted 1/×2 linear least squares regression analysis generated from calibration standards prepared on the day of extraction. The liquid-liquid extraction began with the addition of internal standard solution (10.0 μL of approximately 400 ng/mL of [^13C]-radiolabeled [^13C]-NBI-98854 (i.e., [^13C]-valbenazine) and [^13C]-NBI-83198 (a racemic mixture of two dihydrotetrabenazine enantiomers). After adding 50.0 μL of sodium carbonate solution (0.2 M) and 2.00 mL of methyl tert-butyl ether to all samples, the tubes were sealed, vortexed, and centrifuged. Subsequently, the organic layer was transferred to clean tubes and evaporated to dryness. The samples were then reconstituted with 150 μL of reconstitution solution (water/methanol/acetic acid; 80:20:0.2), sealed, vortexed, sonicated and centrifuged. The reconstituted extract was then transferred into a 96-well plate. […] A triple quadrupole mass spectrometer (Sciex API 4000) equipped with TurboIonSpray source was used in the positive ion mode.
# VMAT2 [6] = molecular target: VMAT2 (Macaca fascicularis, UniProt A0A2K5UVB8); test: VMAT2 occupancy in NHP brain after i.v. NBI-98782, [^18F]AV-133 PET; type: in vivo, cynomolgus monkeys (Macaca fascicularis); conditions: cynomolgus monkey
# Sequence of VMAT2 (Macaca fascicularis, UniProt A0A2K5UVB8) (A0A2K5UVB8 entry or part of it): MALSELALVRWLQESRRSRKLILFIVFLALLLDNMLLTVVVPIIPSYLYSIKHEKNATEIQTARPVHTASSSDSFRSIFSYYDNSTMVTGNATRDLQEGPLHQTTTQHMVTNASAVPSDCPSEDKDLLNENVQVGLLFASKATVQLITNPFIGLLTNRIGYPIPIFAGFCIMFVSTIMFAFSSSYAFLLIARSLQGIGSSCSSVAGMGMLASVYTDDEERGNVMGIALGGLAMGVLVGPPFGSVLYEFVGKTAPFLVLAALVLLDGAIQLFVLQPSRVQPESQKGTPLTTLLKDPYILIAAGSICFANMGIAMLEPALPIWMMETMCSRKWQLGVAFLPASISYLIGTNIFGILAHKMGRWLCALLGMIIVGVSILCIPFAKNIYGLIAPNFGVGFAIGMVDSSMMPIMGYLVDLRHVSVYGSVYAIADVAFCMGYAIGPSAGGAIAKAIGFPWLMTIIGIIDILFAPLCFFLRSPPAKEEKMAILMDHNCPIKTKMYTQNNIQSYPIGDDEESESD
# Text: A radioligand, [^18F]AV-133, has been used to image and quantify brain VMAT2 in vivo.
# Two female non-naïve cynomolgus monkeys (Macaca fascicularis) were used in this study. The animals were judged to be in good health before the start of the study. At study origination, animals A7701 (Tag ID A5028) and A7702 (Tag ID A5029) were 4.45 kg/4 years 11 months and 4.75 kg/3 years 10 months, respectively.
# Dynamic data were acquired in the MicroPET Focus-220 camera (Siemens Microsystems, Knoxville, TN). Emission data were collected for 120 min post-injection and reconstructed into a series of 33 frames and all standard corrections were applied: normalization, random, scatter and attenuation (via CT scan). Dynamic brain PET images were transferred and analyzed using the image processing PMOD software package v3.802 (PMOD Technologies, Zurich, Switzerland). The PET images were rigidly aligned to a previously acquired animal's brain T1 MRI and then spatially normalized to a common cynomolgus MRI template for anatomical brain region definition.
# Volumes of interest (VOIs) defined in the cynomolgus template space (see e.g., Ballanger et al. Neuroimage, 2013, 77:26-43) were applied to the spatially normalized PET images to compute time-activity curves (TACs, kBq/cm^3) for caudate (0.96 cm^3), putamen (1.34 cm^3) and occipital (8.61 cm^3). TACs and images (averaged between 90-120 min) were presented in Standard Uptake Value (SUV) units (g/mL) normalized by the weight of the animal and the injected dose
# Non-invasive Logan graphical analysis (start time of fit, t*=30 min) was used to estimate regional non-displaceable binding potential (BPND) using the TACs in the caudate and putamen, with the cerebellar cortex as the reference TAC. […] Target occupancy was calculated according to the Equation 2-1.
# where h is the Hill slope (h=1.0) and C is the mean of observed plasma concentrations during the scanning interval (60 to 180 minutes post-dose).
structure (smiles),measurement,setting,value
COc1cc2c(cc1OCCC[18F])CCN1C[C@@H](CC(C)C)[C@H](O)C[C@H]21 [[^18F]AV-133],Test-retest for BPND,VMAT2 [1],9.4%
"COc1cc2c(cc1OC)[C@H]1C[C@@H](OC(=O)[C@@H](N)C(C)C)[C@H](CC(C)C)CN1CC2 [valbenazine, (S)-2-amino-3-methyl-butyric acid (2R, 3R,11bR)-3-isobutyl-9,10-dimethoxy-1,3,4,6,7,11b-hexahydro-2H-pyrido[2,1-a]isoquinolin-2-yl ester]",clinical observations,VMAT2 [2],"partially closed eyes (ptosis) (in all monkeys), decreased activity (in ⅔ monkeys), and salivation (in 1 monkey)"
same,increase in [^11C]-PHNO ΔBPND,synaptic dopamine,21-44% and 20-40%
same,Adverse events,[3],consistent with the known safety and tolerability profile of valbenazine
same,estimated VMAT2 occupancy maintained throughout each 24-hour period,VMAT2 [4]; doses clinically effective in tardive dyskinesia,≥ 73%
same,receptor occupancy at 40 mg,"VMAT2 [4]; valbenazine 40 mg once-daily, read-out: estimated target occupancy for Cave",~80%
"COc1cc2c(cc1OC)[C@H]1C[C@@H](O)[C@H](CC(C)C)CN1CC2 [NBI-98782, (2R, 3R,11bR)-3-isobutyl-9,10-dimethoxy-1,3,4,6,7,11b-hexahydro-2H-pyrido[2,1-a]isoquinolin-2-ol]",Mean ng/mL NBI-98782 Concentration during PET Scan (60-180 min),"[5]; A7701, total mass dose 0.04 mg/kg i.v.",2.9 ng/mL
same,Mean ng/mL NBI-98782 Concentration during PET Scan (60-180 min),"[5]; A7701, total mass dose 0.5 mg/kg i.v.",44.5 ng/mL
same,Mean ng/mL NBI-98782 Concentration during PET Scan (60-180 min),"[5]; A7702, total mass dose 0.016 mg/kg i.v.",1.7 ng/mL
same,Mean ng/mL NBI-98782 Concentration during PET Scan (60-180 min),"[5]; A7702, total mass dose 0.13 mg/kg i.v.",14.9 ng/mL
same,receptor occupancy at 0.04 mg/kg,"VMAT2 [6]; iv, read-out: % Occ, animal A7701, Caudate, 0.04 mg/kg",59.1%
same,receptor occupancy at 0.13 mg/kg,"VMAT2 [6]; iv, read-out: % Occ, animal A7701, Caudate, 0.13 mg/kg",67.9%
same,receptor occupancy at 0.5 mg/kg,"VMAT2 [6]; iv, read-out: % Occ, animal A7701, Caudate, 0.5 mg/kg",89.4%
same,receptor occupancy at 0.04 mg/kg,"VMAT2 [6]; iv, read-out: % Occ, animal A7701, Putamen, 0.04 mg/kg",55.2%
same,receptor occupancy at 0.13 mg/kg,"VMAT2 [6]; iv, read-out: % Occ, animal A7701, Putamen, 0.13 mg/kg",70.8%
same,receptor occupancy at 0.5 mg/kg,"VMAT2 [6]; iv, read-out: % Occ, animal A7701, Putamen, 0.5 mg/kg",89.6%
same,receptor occupancy at 0.016 mg/kg,"VMAT2 [6]; iv, read-out: % Occ, animal A7702, Caudate, 0.016 mg/kg",18.7%
same,receptor occupancy at 0.016 mg/kg,"VMAT2 [6]; iv, read-out: % Occ, animal A7702, Putamen, 0.016 mg/kg",18.3%
same,receptor occupancy at 0.13 mg/kg,"VMAT2 [6]; iv, read-out: Occ, animal A7702, Caudate, 0.13 mg/kg",77.5%
same,receptor occupancy at 0.13 mg/kg,"VMAT2 [6]; iv, read-out: Occ, animal A7702, Putamen, 0.13 mg/kg",79.1%
same,receptor occupancy at 0.04 mg/kg,"VMAT2 [6]; read-out: Target Occupancy, Mean of Putamen and Caudate, A7701, total mass dose 0.04 mg/kg",57%
same,receptor occupancy at 0.13 mg/kg,"VMAT2 [6]; read-out: Target Occupancy, Mean of Putamen and Caudate, A7701, total mass dose 0.13 mg/kg",69%
same,receptor occupancy at 0.5 mg/kg,"VMAT2 [6]; read-out: Target Occupancy, Mean of Putamen and Caudate, A7701, total mass dose 0.5 mg/kg",90%
same,receptor occupancy at 0.016 mg/kg,"VMAT2 [6]; read-out: Target Occupancy, Mean of Putamen and Caudate, A7702, total mass dose 0.016 mg/kg",19%
same,receptor occupancy at 0.13 mg/kg,"VMAT2 [6]; read-out: Target Occupancy, Mean of Putamen and Caudate, A7702, total mass dose 0.13 mg/kg",78%
